Experimental data reported in the NIST ThermoML archive (doi:10.1016/j.jct.2016.10.020).
± gives the expanded uncertainty stated by the source.

Columns and labels:
[1] = Molar enthalpy of transition or fusion; details: Crystal; DSC
[2] = Crystal; DTA

Molar enthalpy of transition or fusion [1]: 24.8 ± 1 kJ/mol
Normal melting temperature [2]: 173.80 ± 1.1 °C
Structure (SMILES): COc1cc(Cl)nc(N)n1 [2-amino-4-chloro-6-methoxypyrimidine]
